In publication PMC7932521, “2-aminobenzimidazoles for leishmaniasis: From initial hit discovery to in vivo profiling” (PLoS Neglected Tropical Diseases, 2021):
Read-outs that look alike come from different tables or passages of the source.

Assays:
[1] = biological target: T1, B2 (Homo sapiens, UniProt P30411); test: Bioprofiling 6pt Antag B2 CHO; type: cell-based; conditions: antagonist readout vs Bradykinin
T1 construct: expressed in transfected cells; host or cells: CHO
T1 sequence (P30411 1-391): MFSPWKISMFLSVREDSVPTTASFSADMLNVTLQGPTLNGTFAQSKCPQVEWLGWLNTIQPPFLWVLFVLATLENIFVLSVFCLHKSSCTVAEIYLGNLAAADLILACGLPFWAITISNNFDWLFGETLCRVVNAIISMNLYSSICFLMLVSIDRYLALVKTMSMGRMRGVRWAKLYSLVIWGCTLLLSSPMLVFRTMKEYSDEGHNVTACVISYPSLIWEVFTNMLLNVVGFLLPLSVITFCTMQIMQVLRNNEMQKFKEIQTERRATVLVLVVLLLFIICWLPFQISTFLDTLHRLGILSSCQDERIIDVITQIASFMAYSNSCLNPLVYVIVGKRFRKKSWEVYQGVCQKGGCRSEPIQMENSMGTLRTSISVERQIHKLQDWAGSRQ
Method: (§1) The compounds were evaluated across a panel of 20 liability targets (37 functional assays) which included functional cell-based GPCRs and ion channels in both agonist and antagonist readout, measuring calcium flux and biochemical functional assays for nuclear hormone receptors and phosphodiesterases using TR-FRET format, in a 6 point 1:3 dilution dose series (maximum final concentration of 10 μM).

[2] = Plasma protein binding; type: in vitro ADME; conditions: mouse, pH 7.4, % bound, read-out: Mouse PPB (converted)
Method: (§2) For plasma protein binding, pooled plasma was thawed in a water bath at 37°C and centrifuged at 4,000 rpm for 5 min to remove any clots. The pH value was measured and adjusted to 7.4, if necessary. RPMI medium (pH 7.4) supplemented with 10% fetal calf serum was used. Working solutions (400 μM) of test compounds were prepared by diluting appropriate volume of the stock solutions with DMSO. Working solutions (400 μM) were spiked into plasma to achieve 2 μM final concentrations as loading solutions. The concentration of organic solvent in the final solutions was 0.5% DMSO. The dialysis instrument was assembled following manufacturer’s instructions. Aliquots of loading solution were loaded in triplicate to the donor side of each dialysis well and dialyzed against an equal volume of dialysis buffer. The plate was shaken and incubated for 6 hours in a humidified incubator with 5% CO2 at 37°C. At the end of dialysis, aliquots of dialysate and retentate were removed into sample collection plates. Each sample was matched with an opposite blank buffer or plasma, with a ratio of matrix:dialysis buffer of 50:50 (v:v) in each well and participated with 500μL of stop solution (50% acetonitrile/methanol; internal standards—200 ng/mL tolbutamide, labetalol and 50 ng/mL metformin). All sample collection plates were rotated at 800 rpm for 5 min to mix samples and centrifuged at 20°C, 4000 rpm for 20 min. Aliquots of supernatant of all the samples were removed and injected into LC-MS/MS. Results were calculated as the percentage of remaining parent compound in plasma or medium after incubation.

[3] = biological target: T2, 5-HT2A (Homo sapiens, UniProt P28223); test: Bioprofiling 6pt Antag 5-HT2A CHO; type: cell-based; conditions: antagonist readout vs Serotonin (5-HT)
T2 construct: expressed in transfected cells; host or cells: CHO
T2 sequence (P28223 whole entry): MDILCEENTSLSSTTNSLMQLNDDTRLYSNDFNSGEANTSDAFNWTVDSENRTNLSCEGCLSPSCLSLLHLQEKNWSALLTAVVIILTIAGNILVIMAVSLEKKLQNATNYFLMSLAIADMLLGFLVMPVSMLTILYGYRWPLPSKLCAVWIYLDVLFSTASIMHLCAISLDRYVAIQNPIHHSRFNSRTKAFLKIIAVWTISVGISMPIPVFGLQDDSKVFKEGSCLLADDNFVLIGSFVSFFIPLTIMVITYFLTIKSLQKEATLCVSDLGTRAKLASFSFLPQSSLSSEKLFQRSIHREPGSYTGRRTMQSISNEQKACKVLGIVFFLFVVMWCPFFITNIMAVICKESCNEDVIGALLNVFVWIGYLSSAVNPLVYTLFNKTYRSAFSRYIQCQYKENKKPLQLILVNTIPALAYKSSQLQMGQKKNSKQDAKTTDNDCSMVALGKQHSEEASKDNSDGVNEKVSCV
Method: as §1

[4] = biological target: T3, 5-HT2B (Homo sapiens, UniProt P41595); test: Bioprofiling 6pt Ag 5-HT2B CHO; type: cell-based; conditions: agonist readout
T3 construct: expressed in transfected cells; host or cells: CHO
T3 sequence (P41595 whole entry): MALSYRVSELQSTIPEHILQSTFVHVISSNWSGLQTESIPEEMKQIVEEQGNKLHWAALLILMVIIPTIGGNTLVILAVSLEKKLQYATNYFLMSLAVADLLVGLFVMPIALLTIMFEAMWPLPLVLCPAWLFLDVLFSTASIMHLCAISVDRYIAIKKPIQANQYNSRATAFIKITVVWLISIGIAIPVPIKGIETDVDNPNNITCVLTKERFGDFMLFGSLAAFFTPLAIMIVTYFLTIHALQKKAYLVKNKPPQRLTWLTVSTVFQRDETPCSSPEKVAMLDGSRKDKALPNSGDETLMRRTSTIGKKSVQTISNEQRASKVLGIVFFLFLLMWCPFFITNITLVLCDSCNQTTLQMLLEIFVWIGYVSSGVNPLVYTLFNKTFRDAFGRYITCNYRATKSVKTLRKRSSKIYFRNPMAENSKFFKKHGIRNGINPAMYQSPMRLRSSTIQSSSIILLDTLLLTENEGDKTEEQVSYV
Method: as §1

[5] = Medium protein binding; type: in vitro ADME; conditions: for Media Binding: S1 Data; for Medium binding: % bound
Method: as §2

[6] = Human liver microsomal stability; type: in vitro ADME; conditions: liver microsomes, pH 7.4; human liver microsome; read-out: HLM Clint
Method: The metabolic stability of the compounds was evaluated in human (pool of 200 donors, XenoTech) and mouse liver microsomes (CD1 mouse, GIBCO). Test compounds were prepared at a concentration of 0.5 μM and incubated with 0.25 mg/mL liver microsomes at pH 7.4 and 37°C. The reaction was started by addition of NADPH at […]. Samples were taken at 0, 5, 10, 15, 20 and 30 minutes. The reaction was stopped by the addition of acetonitrile:methanol (1:1) containing an internal standard (tolbutamide at 50 nM). Compounds were quantified by liquid chromatography triple quadrupole mass spectrometry (LC-MS/MS). Peak area ratios (analyte/internal standard) were converted to % remaining using the area ratio at time 0 as 100%. Half-life (t1/2 = ln(2)/k) in minutes and intrinsic clearance (Clint = k x 1000/(0.25)) in μL/min/mg were calculated using a non-linear regression from % remaining versus incubation time. From this plot, the slope (k) was determined. The analysis conditions were: analytical column (Gemini C18, […], Phenomenex), electrospray ionization source (ESI) in positive and negative mode, mobile phase A (water + 0.1% formic acid) and B (acetonitrile + 0.1% formic acid), flow rate of 0.7 mL/min.

[7] = biological target: T4, ETA (Homo sapiens, UniProt P25101); test: Bioprofiling 6pt Antag ETA CHO; type: cell-based; conditions: antagonist readout vs Endothelin-1 (ET-1)
T4 construct: expressed in transfected cells; host or cells: CHO
T4 sequence (P25101 21-427): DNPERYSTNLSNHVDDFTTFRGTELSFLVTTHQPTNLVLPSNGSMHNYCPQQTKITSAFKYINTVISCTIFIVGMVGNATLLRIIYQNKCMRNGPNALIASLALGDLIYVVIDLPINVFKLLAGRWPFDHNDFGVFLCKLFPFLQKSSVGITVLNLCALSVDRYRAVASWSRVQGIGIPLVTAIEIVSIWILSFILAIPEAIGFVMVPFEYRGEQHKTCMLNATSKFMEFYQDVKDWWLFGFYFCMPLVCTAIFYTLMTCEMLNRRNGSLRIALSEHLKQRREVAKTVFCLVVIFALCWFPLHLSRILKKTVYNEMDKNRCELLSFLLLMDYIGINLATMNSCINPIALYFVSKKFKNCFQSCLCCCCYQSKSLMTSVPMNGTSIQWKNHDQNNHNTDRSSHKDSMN
Method: as §1

[8] = biological target: T5, Beta1 (Homo sapiens, UniProt P08588); test: Bioprofiling 6pt Antag Beta1 CHO; type: cell-based; conditions: antagonist readout vs Norepinephrine
T5 construct: expressed in transfected cells; host or cells: CHO
T5 sequence (P08588 whole entry): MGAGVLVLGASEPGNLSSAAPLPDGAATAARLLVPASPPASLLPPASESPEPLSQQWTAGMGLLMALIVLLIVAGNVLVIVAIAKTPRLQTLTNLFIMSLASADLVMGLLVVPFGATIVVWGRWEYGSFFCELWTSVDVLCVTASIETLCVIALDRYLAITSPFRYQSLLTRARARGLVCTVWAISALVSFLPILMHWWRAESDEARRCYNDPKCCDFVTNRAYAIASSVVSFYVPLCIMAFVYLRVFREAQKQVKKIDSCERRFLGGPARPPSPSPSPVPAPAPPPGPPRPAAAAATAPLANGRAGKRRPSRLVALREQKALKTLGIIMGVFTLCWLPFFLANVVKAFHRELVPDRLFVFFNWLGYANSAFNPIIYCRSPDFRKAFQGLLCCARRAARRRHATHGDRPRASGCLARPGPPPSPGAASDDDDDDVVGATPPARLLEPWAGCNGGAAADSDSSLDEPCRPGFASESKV
Method: as §1

[9] = Mouse single-dose pharmacokinetics; type: in vivo; conditions: for free plasma concentration (corrected by PPB) versus in vitro IC50 (corrected for medium binding): after single oral dosing
Method: Compounds were administered to groups (n = 6) of female BALB/c mice via single intravenous dosing (at 2 mg/kg) or single oral dosing (at 50 mg/kg) employing a solution/suspension vehicle comprising of 10% ethanol, 40% PEG400 and 0.4% Tween80 in saline buffer (pH adjusted to 9). Samples derived from plasma (at 0.083 for iv only, 0.25, 1, 2, 4, 8 and 24 h) were quantified by LC−MS/MS. Data analysis and calculation of pharmacokinetic parameters was performed using Phoenix WinNonlin version 7.0.

[10] = test system: MRC-5 cells; test: MRC-5 cytotoxicity; type: cell-based; conditions: for IC50: Homo sapiens, MRC5, panel sheet, average, read-out: IC-50 MRC-5 cells; for CC50: S1 Data
[11] = MRC-5 cytotoxicity; type: cell-based; conditions: human, MRC-5 cells; S1 Data
[12] = female, BALB/c, plasma, single oral dose 50 mg/kg
[13] = female, BALB/c, plasma, single oral dose 50 mg/kg, read-out: Cmax

| SMILES | IC50 [1] [µM] | fraction unbound at 6 h, 2 μM [2] | IC50 [3] [µM] | EC50 [4] [µM] | Media Binding [5] [%] | microsomal CLint at 0.5 μM [6] [µL/min/mg] | IC50 [7] [µM] | IC50 [8] [µM] | free plasma concentration (corrected by PPB) versus in vitro IC50 (corrected for medium binding) [9] | AUC(0-t) [9, 12] [ng·h/mL] | Cmax [9, 13] [ng/mL] | IC50 [10] [µM] | CC50 [11] [µM] | Medium binding [5] [%] | half-life [9, 12] [h] | CC50 [10] [µM] | also measured |
| --- | --- | --- | --- | --- | --- | --- | --- | --- | --- | --- | --- | --- | --- | --- | --- | --- | --- |
| Cn1nccc1C(=O)Nc1nc2ccc(C#N)cc2n1CC(C)(C)C [Compound 29, O=C(Nc1n(CC(C)(C)C)c(c2n1)cc(C#N)cc2)c3n(C)ncc3] | > 10 | 0.029 | > 10 | > 10 | 57.20 | 25 | > 10 | > 10 | below the in vitro IC50 | 35400 | 2000 | > 64 | 14.9 |  |  |  | higher AUClast, 50 vs 10 mg/kg oral [9]: approximately 4 fold; increase in Cmax, 50 vs 10 mg/kg oral [9]: 2 fold; clearance ([9]; female, BALB/c, plasma, 2 mg/kg IV): 9 mL/min/kg; bioavailability [9, 12]: 37% |
| Cn1nc(C(F)(F)F)cc1C(=O)Nc1nc2ccc(C#N)cc2n1CC(F)(F)F [Compound 39, O=C(c1cc(C(F)(F)F)nn1C)Nc2nc(ccc(C#N)c3)c3n2CC(F)(F)F] | > 10 | 0.006 | > 10 | > 10 | 88.34 | 20 | > 10 | > 10 | up to four times above the free IC50 | 63700 | 7300 | 14.7 | 7.87 | 88.3 | 8 |  | Cmax ([9]; female, BALB/c, plasma, single 50 mg/kg oral dose, read-out: total Cmax): ~17 µM; exposure (AUClast) compared to 29 at the same dose ([9]; oral 50 mg/kg): 2 fold |
| N#Cc1ccc2nc(NC(=O)c3ccnc(C(F)(F)F)c3)n(CC(F)(F)F)c2c1 [Compound 44, O=C(c1ccnc(C(F)(F)F)c1)Nc2nc(ccc(C#N)c3)c3n2CC(F)(F)F] | > 10 | 0.008 | > 10 | > 10 | 88.65 | 30 | > 10 | > 10 |  |  |  |  |  | 88.7 |  | > 64 |  |
| COc1ccc(C(=O)Nc2nc3ccc(C#N)cc3n2CC(F)(F)F)cn1 [Compound 43, O=C(c1ccc(OC)nc1)Nc2nc(ccc(C#N)c3)c3n2CC(F)(F)F] | > 10 |  | > 10 | > 10 | 56.74 |  | > 10 | > 10 |  |  |  |  | > 64 |  |  |  |  |
| N#Cc1ccc2nc(NC(=O)c3ccc(C(F)(F)F)nc3)n(CC(F)(F)F)c2c1 [Compound 45, O=C(c1ccc(C(F)(F)F)nc1)Nc2nc(ccc(C#N)c3)c3n2CC(F)(F)F] | > 10 |  | > 10 | > 10 | 83.98 |  | > 10 | > 10 |  |  |  |  |  |  |  | > 64 |  |
| Cn1nccc1C(=O)Nc1nc2ccc(C#N)cc2n1CC(F)(F)F [Compound 30, O=C(c1ccnn1C)Nc2nc(ccc(C#N)c3)c3n2CC(F)(F)F] | > 10 | 0.042 | > 10 | > 10 | 29.15 | 17 | > 10 | > 10 |  | 25200 | 2000 |  | 12.8 | 29.2 | 6.8 |  |  |
